The nature of this test: Antagonist activity against human CCR2 receptor in human monocytes assessed as inhibition of chemotaxis.

Molecules are shown by their SMILES.

On to `C[C@H]1CN([C@@H]2CC[C@H](C(=O)NCc3cc(C(F)(F)F)cc(C(F)(F)F)c3)C2)CC[C@@]12C=Cc1ccccc12` [(1S,3R)-N-{[3,5-bis(trifluoromethyl)phenyl]methyl}-3-[(1R,5'R)-5'-methylspiro[indene-1,4'-piperidine]-1'-yl]cyclopentane-1-carboxamide], for which the IC50 (as a rule, the concentration that inhibits the measured activity by half) turned out to be 57 nM.
